Laboratory results: patent US20100160386A1, “4-PHENOXY-NICOTINE ACID DERIVATIVES AND USE THEREOF AS PPAR-MODULATORS” (BAYER SCHERING PHARMA AKTIENGESELLSCHAFT, priority 2006, published 2010)

Molecular target: T1, human PPARα-receptor (Homo sapiens, UniProt Q07869)
T1 construct: expressed in transfected cells
T1 sequence (Q07869 167-468): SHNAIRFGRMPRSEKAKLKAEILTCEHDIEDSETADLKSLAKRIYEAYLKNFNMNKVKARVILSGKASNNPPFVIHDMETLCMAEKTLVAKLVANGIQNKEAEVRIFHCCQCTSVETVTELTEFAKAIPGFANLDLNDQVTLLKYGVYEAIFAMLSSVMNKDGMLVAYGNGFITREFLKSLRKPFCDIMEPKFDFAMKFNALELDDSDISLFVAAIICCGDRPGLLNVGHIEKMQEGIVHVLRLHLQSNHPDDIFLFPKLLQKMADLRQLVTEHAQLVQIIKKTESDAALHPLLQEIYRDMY
Test: Cellular transactivation assay (GAL4-PPARα chimera, luciferase reporter in CHO cells)
Type: cell-based
Conditions: CHO cells stably expressing GAL4-PPARα chimera and luciferase reporter; stimulation time 6 h
From the text: A cellular assay is used to identify activators of the peroxisome proliferator-activated receptor alpha (PPAR-alpha).
Since mammalian cells contain different endogenous nuclear receptors which can complicate unambiguous interpretation of the results, an established chimera system is used, in which the ligand binding domain of the human PPARα-receptor is fused to the DNA binding domain of the yeast transcription factors GAL4. The GAL4-PPARα chimera thus formed is co-transfected and expressed stably in CHO cells with a reporter construct.
The GAL4-PPARα expression construct contains the ligand binding domain of PPARα (amino acids 167-468), which is PCR-amplified and cloned into the vector pcDNA3.1. This vector already contains the GAL4 DNA binding domain (amino acids 1-147) of the vector pFC2-dbd (Stratagene). The reporter construct, which contains five copies of the GAL4 binding site upstream of a thymidine kinase promoter, leads to the expression of firefly luciferase (Photinus pyralis) after activation and binding of GAL4-PPARα.
The day before the test, CHO (Chinese hamster ovary) cells which stably express the above-described GAL4-PPARα chimera and luciferase reporter gene construct are plated out in 96-hole microtiter plates with 1×10^3 cells in medium (Optimem, GIBCO), 2% activated carbon-purified fetal calf serum (Hyclone), 1.35 mM sodium pyruvate (GIBCO), 0.2% sodium bicarbonate (GIBCO), and kept in a cell incubator (air humidity 96%, 5% v/v CO2, 37° C.). On the day of the test, the substances to be tested are taken up in abovementioned medium, but without addition of calf serum, and added to the cells. After a stimulation time of 6 h, the luciferase activity is measured with the aid of a video camera. The relative light units measured give a sigmoid stimulation curve as a function of the substance concentration. The EC50 values are calculated with the aid of the computer program GraphPad PRISM (Version 3.02).

EC50 [nM]	SMILES
59	Cc1ccc(-c2cc(Oc3ccccc3Cl)c(C(=O)O)cn2)cc1F [Example 1, 4-(2-Chlorophenoxy)-6-(3-fluoro-4-methylphenyl)nicotinic acid]
200	COc1ccc(Cl)c(Oc2cc(-c3cc(F)cc(F)c3)ncc2C(=O)O)c1 [Example 7, 4-(2-Chloro-5-methoxyphenoxy)-6-(3,5-difluorophenyl)nicotinic acid]
235	COc1ccc(Oc2cc(-c3ccc(C)c(F)c3)ncc2C(=O)O)c(Cl)c1 [Example 9, 4-(2-Chloro-4-methoxyphenoxy)-6-(3-fluoro-4-methylphenyl)nicotinic acid]
